The first assay deals with SF-539. Kind of assay: NCI-60 single-dose screen. The format is cell-based. Particulars: Homo sapiens, single dose 10 µM, '-' = no inhibition, read-out: % Growth Inhibition. A digest of the protocol: (§1)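 NCI Developmental Therapeutics Program screen across 60 human cancer cell lines from nine tumor types; compounds tested at a single dose of 10 μM.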
Turning to `COc1ccc(-c2cc(-c3cccc(OC)c3)nc(SC(C)C)n2)cc1` [Compound 19, 2-(Isopropylthio)-6-(3-methoxyphenyl)-4-(4-methoxyphenyl)pyrimidine], the inhibition at 10 µM was 0.24%.

The subject of a further assay is A549/ATCC. Kind of assay: NCI-60 single-dose screen. The format is cell-based. Particulars: Homo sapiens, single dose 10 µM, '-' = no inhibition, read-out: % Growth Inhibition. A digest of the protocol: as §1
Consider `COc1ccc(-c2cc(-c3cccc(OC)c3)nc(SC(C)C)n2)cc1` [Compound 19, 2-(Isopropylthio)-6-(3-methoxyphenyl)-4-(4-methoxyphenyl)pyrimidine], for which the inhibition at 10 µM was determined as 15.9%.

For a further assay, the system named is PC-3. Kind of assay: NCI-60 single-dose screen. Particulars: Homo sapiens, single dose 10 µM, '-' = no inhibition, read-out: % Growth Inhibition. The format is cell-based. The essentials:
as §1
For `COc1ccc(-c2cc(-c3cccc(OC)c3)nc(SC(C)C)n2)cc1` [Compound 19, 2-(Isopropylthio)-6-(3-methoxyphenyl)-4-(4-methoxyphenyl)pyrimidine], the inhibition at 10 µM came to 17.2%.

In the next assay the test system is IGROV1. Kind of assay: NCI-60 single-dose screen. The format is cell-based. The settings on record: Homo sapiens, IGROV-1, single dose 10 µM, '-' = no inhibition, read-out: % Growth Inhibition. The essentials: as §1
Turning to `COc1ccc(-c2cc(-c3cccc(OC)c3)nc(SC(C)C)n2)cc1` [Compound 19, 2-(Isopropylthio)-6-(3-methoxyphenyl)-4-(4-methoxyphenyl)pyrimidine], the inhibition at 10 µM was less than 0%.

The subject of a further assay is SK-MEL-5. The assay is described as follows: NCI-60 single-dose screen. The format is cell-based. Particulars: Homo sapiens, single dose 10 µM, '-' = no inhibition, read-out: % Growth Inhibition. A digest of the protocol: as §1
For the compound `COc1ccc(-c2cc(-c3cccc(OC)c3)nc(SC(C)C)n2)cc1` [Compound 19, 2-(Isopropylthio)-6-(3-methoxyphenyl)-4-(4-methoxyphenyl)pyrimidine], the inhibition at 10 µM is 7.31%.

The test system of another assay is NCI-H23. The assay is described as follows: NCI-60 single-dose screen. It is filed as cell-based. Particulars: Homo sapiens, single dose 10 µM, '-' = no inhibition, read-out: % Growth Inhibition. The essentials: as §1
Consider `COc1ccc(-c2cc(-c3cccc(OC)c3)nc(SC(C)C)n2)cc1` [Compound 19, 2-(Isopropylthio)-6-(3-methoxyphenyl)-4-(4-methoxyphenyl)pyrimidine], for which the inhibition at 10 µM was determined as 8.76%.

In a further assay the test system is M14. Kind of assay: NCI-60 single-dose screen. It is filed as cell-based. The settings on record: Homo sapiens, single dose 10 µM, '-' = no inhibition, read-out: % Growth Inhibition. The essentials:
as §1
`COc1ccc(-c2cc(-c3cccc(OC)c3)nc(SC(C)C)n2)cc1` [Compound 19, 2-(Isopropylthio)-6-(3-methoxyphenyl)-4-(4-methoxyphenyl)pyrimidine]: the inhibition at 10 µM was less than 0%.

The test system of the next assay is CCRF-CEM. The assay is described as follows: NCI-60 single-dose screen. It is filed as cell-based. The settings on record: Homo sapiens, single dose 10 µM, '-' = no inhibition, read-out: % Growth Inhibition. A digest of the protocol:
as §1
On to `COc1ccc(-c2cc(-c3cccc(OC)c3)nc(SC(C)C)n2)cc1` [Compound 19, 2-(Isopropylthio)-6-(3-methoxyphenyl)-4-(4-methoxyphenyl)pyrimidine], for which the inhibition at 10 µM is 9.07%.

A further assay deals with OVCAR-5. The assay is described as follows: NCI-60 single-dose screen. The format is cell-based. The settings on record: Homo sapiens, single dose 10 µM, '-' = no inhibition, read-out: % Growth Inhibition. The essentials:
as §1
For the compound `COc1ccc(-c2cc(-c3cccc(OC)c3)nc(SC(C)C)n2)cc1` [Compound 19, 2-(Isopropylthio)-6-(3-methoxyphenyl)-4-(4-methoxyphenyl)pyrimidine], the inhibition at 10 µM came out at 0.61%.

The subject of another assay is NCI-H460. The assay is described as follows: NCI-60 single-dose screen. The format is cell-based. The settings on record: Homo sapiens, single dose 10 µM, '-' = no inhibition, read-out: % Growth Inhibition. The essentials: as §1
On to `COc1ccc(-c2cc(-c3cccc(OC)c3)nc(SC(C)C)n2)cc1` [Compound 19, 2-(Isopropylthio)-6-(3-methoxyphenyl)-4-(4-methoxyphenyl)pyrimidine], for which the inhibition at 10 µM is 2.13%.

The test system of the next assay is SK-MEL-28. The assay is described as follows: NCI-60 single-dose screen. The format is cell-based. The settings on record: Homo sapiens, single dose 10 µM, '-' = no inhibition, read-out: % Growth Inhibition. The essentials: as §1
For the compound `COc1ccc(-c2cc(-c3cccc(OC)c3)nc(SC(C)C)n2)cc1` [Compound 19, 2-(Isopropylthio)-6-(3-methoxyphenyl)-4-(4-methoxyphenyl)pyrimidine], the inhibition at 10 µM is less than 0%.

The next assay deals with K-562. The assay is described as follows: NCI-60 single-dose screen. It is filed as cell-based. The settings on record: Homo sapiens, K562, single dose 10 µM, '-' = no inhibition, read-out: % Growth Inhibition. The essentials: as §1
On to `COc1ccc(-c2cc(-c3cccc(OC)c3)nc(SC(C)C)n2)cc1` [Compound 19, 2-(Isopropylthio)-6-(3-methoxyphenyl)-4-(4-methoxyphenyl)pyrimidine], for which the inhibition at 10 µM was 29.5%.

Another assay relates to SNB-19. The assay is described as follows: NCI-60 single-dose screen. It is filed as cell-based. Particulars: Homo sapiens, single dose 10 µM, '-' = no inhibition, read-out: % Growth Inhibition. The essentials: as §1
In the case of `COc1ccc(-c2cc(-c3cccc(OC)c3)nc(SC(C)C)n2)cc1` [Compound 19, 2-(Isopropylthio)-6-(3-methoxyphenyl)-4-(4-methoxyphenyl)pyrimidine], the inhibition at 10 µM was 7.53%.

The next assay concerns ACHN 1. The assay is described as follows: NCI-60 single-dose screen. It is filed as cell-based. Particulars: Homo sapiens, single dose 10 µM, '-' = no inhibition, read-out: % Growth Inhibition. The essentials:
as §1
As to `COc1ccc(-c2cc(-c3cccc(OC)c3)nc(SC(C)C)n2)cc1` [Compound 19, 2-(Isopropylthio)-6-(3-methoxyphenyl)-4-(4-methoxyphenyl)pyrimidine], the inhibition at 10 µM was less than 0%.

The next assay relates to MDA-MB231/ATCC. Kind of assay: NCI-60 single-dose screen. It is filed as cell-based. Particulars: Homo sapiens, MDA-MB-231, single dose 10 µM, '-' = no inhibition, read-out: % Growth Inhibition. A digest of the protocol: as §1
Turning to `COc1ccc(-c2cc(-c3cccc(OC)c3)nc(SC(C)C)n2)cc1` [Compound 19, 2-(Isopropylthio)-6-(3-methoxyphenyl)-4-(4-methoxyphenyl)pyrimidine], the inhibition at 10 µM turned out to be 17.3%.

The subject of the next assay is HL-60(TB). Kind of assay: NCI-60 single-dose screen. The format is cell-based. The settings on record: Homo sapiens, single dose 10 µM, '-' = no inhibition, read-out: % Growth Inhibition.
As for `COc1ccc(-c2cc(-c3cccc(OC)c3)nc(SC(C)C)n2)cc1` [Compound 19, 2-(Isopropylthio)-6-(3-methoxyphenyl)-4-(4-methoxyphenyl)pyrimidine], the inhibition at 10 µM was 22.6%.

The next assay deals with EKVX. Kind of assay: NCI-60 single-dose screen. It is filed as cell-based. The settings on record: Homo sapiens, single dose 10 µM, '-' = no inhibition, read-out: % Growth Inhibition. A digest of the protocol:
as §1
With `COc1ccc(-c2cc(-c3cccc(OC)c3)nc(SC(C)C)n2)cc1` [Compound 19, 2-(Isopropylthio)-6-(3-methoxyphenyl)-4-(4-methoxyphenyl)pyrimidine], the inhibition at 10 µM was 22.7%.

The next assay relates to OVCAR-8. The assay is described as follows: NCI-60 single-dose screen. The format is cell-based. The settings on record: Homo sapiens, single dose 10 µM, '-' = no inhibition, read-out: % Growth Inhibition. The essentials:
as §1
For `COc1ccc(-c2cc(-c3cccc(OC)c3)nc(SC(C)C)n2)cc1` [Compound 19, 2-(Isopropylthio)-6-(3-methoxyphenyl)-4-(4-methoxyphenyl)pyrimidine], the inhibition at 10 µM came to 10.7%.

A further assay has as its system NCI/ADR-RES. The assay is described as follows: NCI-60 single-dose screen. The format is cell-based. The settings on record: Homo sapiens, single dose 10 µM, '-' = no inhibition, read-out: % Growth Inhibition. The essentials: as §1
Turning to `COc1ccc(-c2cc(-c3cccc(OC)c3)nc(SC(C)C)n2)cc1` [Compound 19, 2-(Isopropylthio)-6-(3-methoxyphenyl)-4-(4-methoxyphenyl)pyrimidine], the inhibition at 10 µM came out at 9.86%.

The next assay concerns 786-0. The assay is described as follows: NCI-60 single-dose screen. It is filed as cell-based. Particulars: Homo sapiens, single dose 10 µM, '-' = no inhibition, read-out: % Growth Inhibition. A digest of the protocol: as §1
As for `COc1ccc(-c2cc(-c3cccc(OC)c3)nc(SC(C)C)n2)cc1` [Compound 19, 2-(Isopropylthio)-6-(3-methoxyphenyl)-4-(4-methoxyphenyl)pyrimidine], the inhibition at 10 µM was determined as 4.09%.

For a further assay, the system named is SNB-75. The assay is described as follows: NCI-60 single-dose screen. The settings on record: Homo sapiens, single dose 10 µM, '-' = no inhibition, read-out: % Growth Inhibition. The format is cell-based. The essentials: as §1
Turning to `COc1ccc(-c2cc(-c3cccc(OC)c3)nc(SC(C)C)n2)cc1` [Compound 19, 2-(Isopropylthio)-6-(3-methoxyphenyl)-4-(4-methoxyphenyl)pyrimidine], the inhibition at 10 µM is less than 0%.

In another assay the test system is MALME-3M. Kind of assay: NCI-60 single-dose screen. The settings on record: Homo sapiens, single dose 10 µM, '-' = no inhibition, read-out: % Growth Inhibition. It is filed as cell-based. The essentials: as §1
For `COc1ccc(-c2cc(-c3cccc(OC)c3)nc(SC(C)C)n2)cc1` [Compound 19, 2-(Isopropylthio)-6-(3-methoxyphenyl)-4-(4-methoxyphenyl)pyrimidine], the inhibition at 10 µM is less than 0%.

Another assay relates to LOX IMVI. Kind of assay: NCI-60 single-dose screen. Particulars: Homo sapiens, single dose 10 µM, '-' = no inhibition, read-out: % Growth Inhibition. It is filed as cell-based. The essentials:
as §1
Turning to `COc1ccc(-c2cc(-c3cccc(OC)c3)nc(SC(C)C)n2)cc1` [Compound 19, 2-(Isopropylthio)-6-(3-methoxyphenyl)-4-(4-methoxyphenyl)pyrimidine], the inhibition at 10 µM turned out to be 6.05%.

The values are drawn from PMC11576293, “New series of 4,6-diaryl pyrimidines: facile synthesis and antiproliferative activity as dual EGFR/VEGFR-2 inhibitors” (Frontiers in Chemistry, 2024).
